Experimental data: US7153858B2, “Arylpiperazinyl compounds” (Epix Delaware, Inc., priority 2003, dated 2006)
Counter-ions that a name gives are not always drawn. Like-named read-outs stand apart in the source and are kept apart here.

Columns and labels:
Assay type in all cases: binding
5-HT1A = molecular target: T1, 5-HT1A (Homo sapiens, UniProt P08908); experiment: 5-HT1A receptor affinity (Ki), Table 1
T1 sequence (P08908 1-422): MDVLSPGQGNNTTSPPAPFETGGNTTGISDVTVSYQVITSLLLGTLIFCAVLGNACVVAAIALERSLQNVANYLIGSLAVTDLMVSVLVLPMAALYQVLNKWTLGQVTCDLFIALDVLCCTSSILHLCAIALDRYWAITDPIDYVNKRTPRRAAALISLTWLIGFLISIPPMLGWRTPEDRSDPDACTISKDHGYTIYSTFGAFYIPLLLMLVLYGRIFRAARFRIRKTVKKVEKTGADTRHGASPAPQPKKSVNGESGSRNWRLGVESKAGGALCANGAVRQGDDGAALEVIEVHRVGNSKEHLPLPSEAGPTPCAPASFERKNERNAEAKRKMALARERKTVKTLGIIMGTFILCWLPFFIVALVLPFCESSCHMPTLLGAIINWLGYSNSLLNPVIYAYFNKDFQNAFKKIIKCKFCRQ

α1 = α1 cross-reactivity (% inhibition / Ki), Table 1
α2 = α2 cross-reactivity (% inhibition / Ki), Table 1

Ki (5-HT1A; read-out: 5-HT1A (Ki))	α1 % inhibition (α1)	α2 % inhibition (α2)	Ki (α2)	SMILES	α1 % inhibition (α1; HCl salt)	α2 % inhibition (α2; HCl salt)	Ki (5-HT1A; 5-HT1A (Ki))
21 nM	42%	68%	–	O=S(=O)(c1ccc(F)cc1)N1CCC(CN2CCN(c3ccccn3)CC2)CC1 [1-[1-(4-Fluoro-benzenesulfonyl)-piperidin-4-ylmethyl]-4-pyridin-2-yl-piperazine]	–	–	–
–	0%	11%	–	Cc1ccc(S(=O)(=O)NCCCCN2CCN(c3cccc(NC(=O)C(C)(C)C)c3)CC2)cc1 [2,2-Dimethyl-N-(3-{4-[4-(toluene-4-sulfonylamino)-butyl]-piperazin-1-yl}-phenyl)-propionamide]	–	–	–
78 nM	15%	<10%	–	Cc1ccc(S(=O)(=O)NCCCCN2CCN(c3cccc(NS(=O)(=O)C(C)C)c3)CC2)cc1 [4-Methyl-N-(4-{4-[3-(propane-2-sulfonylamino)-phenyl]-piperazin-1-yl}-butyl)-benzenesulfonamide]	–	–	–
40 nM	98%	90%	–	Cc1ccc(S(=O)(=O)NCCCCN2CCN(c3ccccc3)CC2)cc1 [4-Methyl-N-[4-(4-phenyl-piperazin-1-yl)-butyl]-benzenesulfonamide]	–	–	–
507 nM	74%	0%	–	CN(C)c1cccc(N2CCN(CC3CCN(S(=O)(=O)c4ccc(F)cc4)CC3)CC2)c1 [(3-{4-[1-(4-Fluoro-benzenesulfonyl)-piperidin-4-ylmethyl]-piperazin-1-yl}-phenyl)-dimethyl-amine]	–	–	–
6.5 nM	81%	51%	–	O=S(=O)(CC1CCCCC1)NCCCCN1CCN(c2ccccn2)CC1 [C-Cyclohexyl-N-[4-(4-pyridin-2-yl-piperazin-1-yl)-butyl]-methanesulfonamide]	–	–	–
–	98%	–	–	COc1ccccc1N1CCN(CCCCNS(=O)(=O)CC2CCCCC2)CC1 [C-Cyclohexyl-N-{4-[4-(2-methoxy-phenyl)-piperazin-1-yl]-buty] [C-Cyclohexyl-N-{4-[4-(2-methoxy-phenyl)-piperazin-1-yl]-butyl}-methanesulfonamide]	–	–	–
110 nM	85%	25%	–	CN(C)c1cccc(N2CCN(CCCCNS(=O)(=O)CC3CCCCC3)CC2)c1 [C-Cyclohexyl-N-{4-[4-(3-dimethylamino-phenyl)-piperazin-1-yl]-butyl}-methanesulfonamide]	–	–	–
21 nM	40%	15%	–	Cc1ccc(S(=O)(=O)NCCCCN2CCN(c3cccc(NC(=O)C4CC4)c3)CC2)cc1 [Cyclopropanecarboxylic acid (3-{4-[4-(toluene-4-sulfonylamino)-butyl]-piperazin-1-yl}-phenyl)-amide]	–	–	–
8.9 nM	22%	<10%	–	O=C(Nc1cccc(N2CCN(CCCCNS(=O)(=O)CC3CCCCC3)CC2)c1)C1CC1 [Cyclopropanecarboxylic acid {3-[4-(4-cyclohexylmethanesulfonylamino-butyl)-piperazin-1-yl]-phenyl}-amide]	–	–	–
13 nM	49%	<10%	–	CC(=O)Nc1cccc(N2CCN(CC3CCN(S(=O)(=O)c4ccc(F)cc4)CC3)CC2)c1 [N-(3-{4-[1-(4-Fluoro-benzenesulfonyl)-piperidin-4-ylmethyl]-piperazin-1-yl}-phenyl)-acetamide]	–	–	–
112 nM	<10%	<10%	–	CC(=O)Nc1cccc(N2CCN(CC3CCN(S(=O)(=O)C(C)C)CC3)CC2)c1 [N-(3-{4-[1-(Propane-2-sulfonyl)-piperidin-4-ylmethyl]-piperazin-1-yl}-phenyl)-acetamide]	–	–	–
11 nM	5%	0%	–	CC(=O)Nc1cccc(N2CCN(CCCCNS(=O)(=O)CC(C)C)CC2)c1 [N-(3-{4-[4-(2-Methyl-propane-1-sulfonylamino)-butyl]-piperazin-1-yl}-phenyl)-acetamide]	–	–	–
18 nM	39%	<10%	–	CC(=O)Nc1cccc(N2CCN(CCCCNS(=O)(=O)c3ccc(F)cc3)CC2)c1 [N-(3-{4-[4-(4-Fluoro-benzenesulfonylamino)-butyl]-piperazin-1-yl}-phenyl)-acetamide]	–	–	–
1.3 nM	37%	47%	616 nM	CC(=O)Nc1cccc(N2CCN(CCCCN(C)S(=O)(=O)CC3CCCCC3)CC2)c1 [N-(3-{4-[4-(Cyclohexylmethanesulfonyl-methyl-amino)-butyl]-piperazin-1-yl}-phenyl)-acetamide]	–	–	–
24 nM	<10%	12%	–	CC(=O)Nc1cccc(N2CCN(CCCCNS(=O)(=O)C(C)C)CC2)c1 [N-(3-{4-[4-(Propane-2-sulfonylamino)-butyl]-piperazin-1-yl}-phenyl)-acetamide]	–	–	–
56 nM	12%	12%	–	CCCC(=O)Nc1cccc(N2CCN(CCCCNS(=O)(=O)c3ccc(C)cc3)CC2)c1 [N-(3-{4-[4-(Toluene-4-sulfonylamino)-butyl]-piperazin-1-yl}-phenyl)-butyramide]	–	–	–
47 nM	47%	12%	–	Cc1ccc(S(=O)(=O)NCCCCN2CCN(c3cccc(NC(=O)C(C)C)c3)CC2)cc1 [N-(3-{4-[4-(Toluene-4-sulfonylamino)-butyl]-piperazin-1-yl}-phenyl)-isobutyramide]	–	–	–
213 nM	0%	31%	–	CCC(=O)Nc1cccc(N2CCN(CCCCNS(=O)(=O)c3ccc(C)cc3)CC2)c1 [N-(3-{4-[4-(Toluene-4-sulfonylamino)-butyl]-piperazin-1-yl}-phenyl)-propionamide]	–	–	–
10 nM	13%	<10%	–	CC(=O)Nc1cccc(N2CCN(CC3CCN(S(=O)(=O)CC4CCCCC4)CC3)CC2)c1 [N-{3-[4-(1-Cyclohexylmethanesulfonyl-piperidin-4-ylmethyl)-piperazin-1-yl]-phenyl}-acetamide]	–	–	–
40 nM	<10%	12%	–	CC(=O)Nc1cccc(N2CCN(CCCCNS(=O)(=O)C3CCCCC3)CC2)c1 [N-{3-[4-(4-Cyclohexanesulfonylamino-butyl)-piperazin-1-yl]-phenyl}-acetamide]	–	–	–
5.1 to 11 nM	–	<10%	–	CC(=O)Nc1cccc(N2CCN(CCCCNS(=O)(=O)CC3CCCCC3)CC2)c1 [N-{3-[4-(4-Cyclohexylmethanesulfonylamino-butyl)-piperazin-1-yl]-phenyl}-acetamide]	–	–	–
141 nM	47%	14%	–	CCS(=O)(=O)Nc1cccc(N2CCN(CCCCNS(=O)(=O)c3ccc(C)cc3)CC2)c1 [N-{4-[4-(3-Ethanesulfonylamino-phenyl)-piperazin-1-yl]-butyl}-4-methyl-benzenesulfonamide]	–	–	–
46 nM	51%	21%	–	Cc1ccc(S(=O)(=O)NCCCCN2CCN(c3cccc(NS(C)(=O)=O)c3)CC2)cc1 [N-{4-[4-(3-Methanesulfonylamino-phenyl)-piperazin-1-yl]-butyl}-4-methyl-benzenesulfonamide]	–	–	–

SMILES	Ki (5-HT1A; read-out: 5-HT1A (Ki))	α1 % inhibition (α1)	α2 % inhibition (α2)	Ki (α2)	α1 % inhibition (α1; HCl salt)	α2 % inhibition (α2; HCl salt)	Ki (5-HT1A; 5-HT1A (Ki))
Cc1ccc(S(=O)(=O)NCCCCN2CCN(c3cccc([N+](=O)[O-])c3)CC2)cc1 [4-Methyl-N-{4-[4-(3-nitro-phenyl)-piperazin-1-yl]-butyl}-benzenesulfonamide HCl salt]	105 nM	–	–	–	61%	23%	–
Cc1ccc(S(=O)(=O)NCCCCN2CCN(c3cccc([N+](=O)[O-])c3)CC2)cc1 [4-Methyl-N-{4-[4-(3-nitro-phenyl)-piperazin-1-yl]-butyl}-benzenesulfonamide]	125 nM	56%	14%	–	–	–	–
Cl.O=C(Nc1cccc(N2CCNCC2)c1)C1CC1 [Cyclopropanecarboxylic acid (3-piperazin-1-yl-phenyl)-amide HCl]	–	0%	14%	–	–	–	4.6 nM
CC(=O)Nc1cccc(N2CCNCC2)c1.Cl [N-(3-Piperazin-1-yl-phenyl)-acetamide HCl]	–	0%	35%	–	–	–	2.9 nM
